{"source": "patent US20090298077A1", "about": "“ASSAY FOR MEASUREMENT OF APURINIC/APYRIMIDINIC (AP) SITES AND FOR SCREENING AP-SITE REACTIVE COMPOUNDS” (priority 2006, published 2009)", "format_in_all_cases": "binding, calf", "key": {"AP-DNA [1]": {"system": "AP-DNA", "assay": "Competitive reactions between FARP and MX with AP-DNA", "details": "[FARP]/[MX] 50.0 μM/20.0 μM, 125 nM AP-DNA"}, "AP-DNA [2]": {"system": "AP-DNA", "assay": "Competitive reactions between FARP and MX with AP-DNA", "details": "for Fluorescence Intensity/10^4: 125 nM AP-DNA", "experimental": "(§1) 100 μL of 5 μM FARP in phosphate buffer (10 mM, pH 7.0) was added to 200 μL phosphate buffer (10 mM, pH 7.0) containing 10 μg of DNA extracted from cells, individual AP-DNA standard (10, 20, 40, 80, 160, 320, and 640 nM AP), and blank AP-DNA control, respectively. After vortexing, the reaction was allowed to proceed at room temperature for 15 min. At the end of the reaction 200 μL ammonium acetate (7.5M) and 1000 μL ice-cold ethanol (100%) were added. The solution was mixed gently by inverting the tube before keeping it at −20° C. for 30 min. Each tube was centrifuged at 4° C. and 12,000 g for 10 min. The supernatant was poured out carefully so that no loss of FARP-AP-DNA took place. 1200 μL of ice-cold ethanol (70%) was added to each tube to remove the free FARP by centrifugation at 4° C. and 12,000 g for 10 min. This washing step with 70% ice-cold ethanol was repeated two more times. After discarding the supernatant, the FARP-AP-DNA precipitate in the tube was dried at room temperature for 30 min. in a venting hood. The FARP-AP-DNA precipitate was hydrated and resuspended in 200 μL of phosphate buffer (10 mM, pH 9.0) at room temperature for 1 hr. The fluorescence intensity of the resultant FARP-AP-DNA solution was measured by the FluoroMax-2 spectrofluorometer. A calibration curve could be constructed by plotting the fluorescence intensity versus the concentration of AP sites.\nSince aminooxy and hydrazone nucleophiles can react with aldehyde group of AP site and form condensation product, it is desirable to know when MX and FARP compete with AP-DNA, which compound has greater reactivity toward AP-DNA. The finding of this experiment will lay the foundation of a screening assay for MX-like compounds.\nIn the study, the amount of AP-DNA used were 125 nM in 200 μL of 10 mM phosphate buffer at pH 7.0 and the ratios of [FARP]/[MX] were as follows: 50 μM FARP/0 μM, 50.0 μM/5 μM, 50.0 μM/12.5 μM, 50.0 μM/16.7 μM, 50.0 μM/25.0 μM 50.0 μM/22.7 μM, 50.0 μM/25 μM, 50.0 μM/50.0 μM, 50.0 μM/100.0 μM, 50.0 μM/200.0 μM, 50.0 μM/500.0 μM in 100 μL of 10 mM phosphate buffer at pH 7.0. Because MX and FARP were competing for a limited amount of AP-DNA, and only FARP-AP-DNA was fluorescent, the reduced fluorescence intensity reflected the amount of MX binding to the AP sites. […] This is probably due to the molecular size of MX, which allows it to diffuse to faster to the AP-DNA than FARP molecule in aqueous solution."}, "AP-DNA [3]": {"system": "AP-DNA", "assay": "FARP AP-site assay: screening of MX-like compounds in competition with FARP", "experimental": "as §1\nOne important application of the FARP AP-site assay developed is to screen MX-like compounds for their reactivity to AP site based on known chemical structures. In this work, four compounds with aminooxy or hydrazone group (i.e., MXL1O1, MXLIO2, MXLI 03, and MXL 104) together with MX were tested. The detail experiment included mixing equal concentration and volume of each individual test compound with FARP (50 μM in 100 μL of 10 mM phosphate buffer at pH 7.0) before reacting with 200 µL of 100 nM AP-DNA. The remaining experimental procedures were the same as described in the Experimental section. The data of fluorescence intensity reduced by MX and MX-like compounds were given in Table XI and the fluorescence intensity of the test compounds were compared in FIG. 19."}, "AP-DNA [4]": {"system": "AP-DNA", "assay": "Reversibility study of the condensation reaction between FARP / MX and AP-DNA", "details": "for Fluorescence Intensity, FARP Reaction Followed MX Reaction: FARP-AP-DNA incubated with 50 μM MX; for Fluorescence Intensity, MX Replacement Followed by FARP Replacement: MX-AP-DNA incubated with 50 μM FARP", "experimental": "It was known that the aldehyde group of an AP site could easily condense with aminooxy or hydrazone nucleophiles. However, the reversibility of the reaction was not clear, especially in the presence of another competing nucleophile. To clarify the above, two experiments were designed and carried out as follows: (a) FARP (50 μM in 100 μL of 10 mM phosphate buffer at pH 7.0) reacted with AP-DNA (125 nM in 200 μL of 10 mM phosphate buffer at pH 7.0) for 1 hr, after washing the condensation product (FARP-AP-DNA) incubated with MX (50 μM in 100 μL of 10 mM phosphate buffer at pH 7.0) for various time periods; and (b) MX (50 μM in 100 μL of 10 mM phosphate buffer at pH 7.0) reacted with AP-DNA (125 nM, 200 μL) for 1 hr, after washing the condensation product (MX-AP-DNA) incubated with FARP (50 μM in 100 μL of 10 mM phosphate buffer at pH 7.0) for various time periods."}, "[5]": {"details": "test compound mixed with FARP at equal concentration and volume (50 μM in 100 μL, pH 7.0), 100 nM AP-DNA"}}, "note": "Values joined by “and” are separate entries in the source; they are usually repeats but may differ in a detail not shown here. Equal entries are not always repeated."}
{"smiles": "CON", "note": "[MX, methoxyamine]", "values": [{"measurement": "Fluorescence Intensity/10^4", "setting": "AP-DNA [1]", "result": 5.6423}, {"measurement": "Fluorescence Intensity/10^4", "setting": "AP-DNA [2]; [FARP]/[MX] 50.0 μM/5.0 μM", "result": 8.9453}, {"measurement": "Fluorescence Intensity/10^4", "setting": "AP-DNA [2]; [FARP]/[MX] 50.0 μM/12.5 μM", "result": 8.3567}, {"measurement": "Fluorescence Intensity/10^4", "setting": "AP-DNA [2]; [FARP]/[MX] 50.0 μM/16.7 μM", "result": 7.6453}, {"measurement": "Fluorescence Intensity/10^4", "setting": "AP-DNA [2]; [FARP]/[MX] 50.0 μM/22.7 μM", "result": 3.8976}, {"measurement": "Fluorescence Intensity/10^4", "setting": "AP-DNA [2]; [FARP]/[MX] 50.0 μM/25.0 μM", "result": 3.2452}, {"measurement": "Fluorescence Intensity/10^4", "setting": "AP-DNA [2]; [FARP]/[MX] 50.0 μM/50.0 μM", "result": 2.587}, {"measurement": "Fluorescence Intensity/10^4", "setting": "AP-DNA [2]; [FARP]/[MX] 50.0 μM/100.0 μM", "result": 2.348}, {"measurement": "Fluorescence Intensity/10^4", "setting": "AP-DNA [2]; [FARP]/[MX] 50.0 μM/200.0 μM", "result": 2.2876}, {"measurement": "Fluorescence Intensity/10^4", "setting": "AP-DNA [2]; [FARP]/[MX] 50.0 μM/500.0 μM", "result": 2.0896}, {"measurement": "affinity toward AP-DNA compared with FARP", "setting": "AP-DNA [2]; result in words", "result": "greater affinity toward APDNA than that of FARP"}, {"measurement": "Normalized Fluorescence Intensity %", "setting": "AP-DNA [3]; relative to FARP alone = 100, equal concentration of test compound and FARP, 100 nM AP-DNA", "result": 37.3, "unit": "%"}, {"measurement": "reactivity toward AP-DNA compared with FARP", "setting": "AP-DNA [3]; result in words", "result": "higher reactivity than FARP"}, {"measurement": "Fluorescence Intensity Individual Measurement", "setting": "AP-DNA [3]; [5]", "result": "6543.0 and 6137.0"}, {"measurement": "Fluorescence Intensity Mean", "setting": "AP-DNA [3]; [5]", "result": 6340.0}, {"measurement": "Fluorescence Intensity, FARP Reaction Followed MX Reaction", "setting": "AP-DNA [4]; replacement time 10 min", "result": "11,003"}, {"measurement": "Fluorescence Intensity, FARP Reaction Followed MX Reaction", "setting": "AP-DNA [4]; replacement time 20 min", "result": "11,289"}, {"measurement": "Fluorescence Intensity, FARP Reaction Followed MX Reaction", "setting": "AP-DNA [4]; replacement time 30 min", "result": "10,759"}, {"measurement": "Fluorescence Intensity, FARP Reaction Followed MX Reaction", "setting": "AP-DNA [4]; replacement time 40 min", "result": "11,193"}, {"measurement": "Fluorescence Intensity, FARP Reaction Followed MX Reaction", "setting": "AP-DNA [4]; replacement time 50 min", "result": "11,226"}, {"measurement": "Fluorescence Intensity, FARP Reaction Followed MX Reaction", "setting": "AP-DNA [4]; replacement time 60 min", "result": "11,139"}, {"measurement": "Fluorescence Intensity, FARP Reaction Followed MX Reaction", "setting": "AP-DNA [4]; replacement time 90 min", "result": "11,112"}, {"measurement": "Fluorescence Intensity, FARP Reaction Followed MX Reaction", "setting": "AP-DNA [4]; replacement time 120 min", "result": "11,145"}, {"measurement": "Fluorescence Intensity, MX Replacement Followed by FARP Replacement", "setting": "AP-DNA [4]; replacement time 10 min", "result": "3,366"}, {"measurement": "Fluorescence Intensity, MX Replacement Followed by FARP Replacement", "setting": "AP-DNA [4]; replacement time 20 min", "result": "3,225"}, {"measurement": "Fluorescence Intensity, MX Replacement Followed by FARP Replacement", "setting": "AP-DNA [4]; replacement time 30 min", "result": "3,557"}, {"measurement": "Fluorescence Intensity, MX Replacement Followed by FARP Replacement", "setting": "AP-DNA [4]; replacement time 40 min", "result": "3,410"}, {"measurement": "Fluorescence Intensity, MX Replacement Followed by FARP Replacement", "setting": "AP-DNA [4]; replacement time 50 min", "result": "3,321"}, {"measurement": "Fluorescence Intensity, MX Replacement Followed by FARP Replacement", "setting": "AP-DNA [4]; replacement time 60 min", "result": "3,192"}, {"measurement": "Fluorescence Intensity, MX Replacement Followed by FARP Replacement", "setting": "AP-DNA [4]; replacement time 90 min", "result": "3,202"}, {"measurement": "Fluorescence Intensity, MX Replacement Followed by FARP Replacement", "setting": "AP-DNA [4]; replacement time 120 min", "result": "3,081"}, {"measurement": "reversibility of the condensation reaction with aldehyde group of AP-DNA", "setting": "AP-DNA [4]; result in words, under the assay conditions", "result": "irreversible"}]}
